This passage reports melting point results from a melting point compilation (Tetko et al.; mined from patent text by program, amines drawn as free bases though some values may be those of a salt).

What is called melting point is the temperature of the solid-liquid transition.

Bounds are passed on as bounds.

Consider `C#Cc1cccc(C(=O)OCC)c1`, for which the melting point was 36 to 38 °C. On to `CC(C)(CSc1ccc(Cl)cc1)C(O)C(Oc1ccc(Cl)cc1)n1cncn1` (configuration not stated), for which the melting point was determined as 132 °C.

For the compound `CC(=O)OCC1OC(n2c(Br)nc3cc(Cl)c(Cl)cc32)C(OC(C)=O)C1OC(C)=O` (configuration not stated), the melting point is less than 65 °C.

`CN1C(=O)CC[C@]2(C)c3ccc(-c4ccccc4F)cc3CC[C@@H]12` returned a melting point of 142 to 150 °C. The figure for `N#Cc1cccc(-c2cncc(OC3SCC(O)C(O)C3O)c2)c1` (configuration not stated) is 172 °C. With `O=C1CCCc2cc(S(=O)(=O)c3ccccc3)ccc21`, the melting point turned out to be 121 °C. As to `CC(CN(C)C)N1c2ccccc2Sc2ccc(C(=O)NCc3ccccc3F)cc21` (racemic), the melting point came out at 130 °C. `COCC1CC(c2ccc3ccccc3c2C#N)=NO1` (configuration not stated) came in with a melting point of 110 to 111 °C. In turn, `Cc1nc(-c2ccc(C(F)(F)F)cc2)oc1CSc1ccc(CC(=O)O)cc1` displayed a melting point of 135 to 136 °C. The compound `CC(C)(C)OC(=O)NC(Cc1ccc(OCc2ccccc2)cn1)C(=O)NCc1ccc(C(=O)NO)cc1` (configuration not stated) showed a melting point of 106 to 108 °C. `Nc1ccnc2c(F)cccc12` registered a melting point of 184 to 186 °C.

In the case of `CC(=O)Nc1cc(O)c(C(=O)CCCCCl)cc1Cl`, the melting point was 126 to 128 °C. The figure for `O=C(O)c1nc(Cl)cc([N+](=O)[O-])c1Cl` is 192 to 193 °C.

Compound `COC(=O)CCC(CCCCNS(=O)(=O)c1ccc(Cl)cc1)CCOc1cccnc1` (configuration not stated) gave a melting point of 57 to 58 °C.

Consider `c1ccc(OCCCCCCN2CCN(c3nccs3)CC2)cc1`, for which the melting point was in the range of 37 to 39 °C. `CCCCCCC(C(=O)O)N1NCc2cc(-c3ccccc3-c3nn[nH]n3)ccc21` (configuration not stated) came in with a melting point of 105 to 110 °C. Regarding `CCNc1ncc(-c2cc(Cl)cc(Cl)c2Cl)c(N)n1`, the melting point fell in the range of 149 to 152 °C. For the compound `CC(C)(C)NC(=O)Nc1nc2nc(N)ncc2cc1-c1cccnc1`, the melting point was more than 300 °C. In turn, `CCOC(=O)c1c(-c2cccc([N+](=O)[O-])c2)cc(-c2ccccc2)nc1C` returned a melting point of 110 to 112 °C.

As to `CC(C)c1cccc(C(C)C)c1-n1nnn(C(C)C)c1=S`, the melting point lay within 109 to 111 °C.

In the case of `COc1ccc(C2=NN(C3CCN(S(=O)(=O)c4ccccc4OC(F)(F)F)CC3)C(=O)CC2)cc1OC`, the melting point lay in the range of 118 to 119 °C. With `O=C1CCCc2c1ccc(O)c2O`, the melting point lay in the range of 191 to 194 °C. In turn, `CC(COc1ccc(CC2SC(=O)NC2=O)cc1)NCC(O)c1cccc(Cl)c1` (configuration not stated) returned a melting point of 100 to 125 °C. For the compound `COc1ccc2nc(C3(c4ccc(S(N)(=O)=O)cc4)C=C(C(F)F)NN3)sc2c1` (configuration not stated), the melting point lay in the range of 211 to 212 °C. Compound `O=C1CCC(N2C(=O)c3cccc(OCc4ccc(CN5CCN(CC(F)(F)F)CC5)cc4)c3C2=O)C(=O)N1` (configuration not stated) registered a melting point of 163 to 165 °C. Compound `CC1C(=O)Oc2cc(N3CCCCC3)c(Cl)cc21` (configuration not stated) registered a melting point of 108 to 111 °C. In the case of `OCC(CO)Oc1ccc(Cl)cc1` it was 62 to 64 °C.

Turning to `CN(C)S(=O)(=O)c1ccc(COc2cccc3c2CN(C2CCC(=O)NC2=O)C3=O)cc1` (configuration not stated), the melting point lay within 261 to 263 °C. In the case of `O=C1c2cc3c(cc2CCC1(Br)Br)OCC3`, the melting point lay within 138 to 142 °C. `CC(=O)C1(Nc2ccccc2)CCN(C(C)C)CC1`: the melting point amounted to 107 °C. In turn, `Cc1ccc(S(=O)(=O)Nc2cc(C(=O)O)c3c(c2)C(C(=O)O)CC(c2ccccc2)N3)cc1` (configuration not stated) had a melting point of 235 to 237 °C.

With `CC(C)(C)C(=O)C(Oc1cccc(Cl)n1)n1cncn1` (configuration not stated), the melting point lay within 103 to 105 °C. The compound `N#Cc1ccc2oc(CCc3ccc(CO)cc3)cc2c1` displayed a melting point of 72 to 73 °C.

`O=C(O)C(O)=CC(=O)c1cn(Cc2ccccc2)c(=O)n(Cc2ccccc2)c1=O` yielded a melting point of 186 to 188 °C. `CCOC(=O)Cc1nn(C/C=C/c2cccc(C(F)(F)F)c2F)c(=O)c2ccccc12` yielded a melting point of 104 to 106 °C.

`COc1ccc(-c2nc(C(=O)N3CCN(C(C)=O)CC3)sc2-c2ccc(OC)cc2)cc1` yielded a melting point of 176 to 178 °C. `CCOP(=O)(OCC)C(Nc1nc2ccccc2s1)P(=O)(OCC)OCC` gave a melting point of 165 to 167 °C.

`O=[N+]([O-])c1ccc(S(=O)(=O)n2c3cc(O)c(O)cc3c3ccc(O)c(O)c32)cc1`: the melting point fell in the range of 233 to 234 °C.

On to `CCCOC(=O)C1=C(C)NC(C)=C(C(=O)OCC)C1c1ccccc1C#N` (configuration not stated), for which the melting point is 156 °C. In turn, `CCOC(=O)c1ncc2c(c1COC)c1c(OS(=O)(=O)C(F)(F)F)cccc1n2S(=O)(=O)C(F)(F)F` showed a melting point of 60 to 62 °C.

`CC(=O)c1ccc2c(NCc3ccc(NC(=O)c4ccc(F)cc4)cc3)nc(N(C)C)nc2c1` returned a melting point of 195 °C. As to `COC(=O)C(Cc1ccccc1)NC(=S)Nc1nc(C)cs1` (racemic), the melting point was 131 to 132 °C. Take `CNC(=O)[C@@H]1C[C@H](OS(=O)(=O)c2ccc(C)cc2)CN1S(=O)(=O)c1ccc(C)cc1`: the melting point is 147 to 149 °C.

Take `COC(=O)Cc1cc(NC(=O)OC(C)(C)C)c([N+](=O)[O-])cc1C#Cc1ccccc1`: the melting point amounted to 134 °C. The figure for `CCN(CC)CCNC(=O)c1cc(NS(C)(=O)=O)c(Cl)cc1OC` is 123 to 124 °C; for `COc1ccc(CCc2nnc(-c3ccc4occc4c3)o2)cc1` it is 127 to 128 °C.

In the case of `CNC(=O)N(C)C1=NN(C(C)=O)C(C)(C)S1`, the melting point fell in the range of 151 to 154 °C. Turning to `O=C(NCc1ccccc1)c1ccnc(-n2ccc(OCc3ccccc3)cc2=O)c1`, the melting point fell in the range of 158 to 161 °C.

As for `CC(=O)OC12Oc3cc(C(C)C)ccc3C1(OC(C)=O)C(=O)c1c(N)cccc12` (configuration not stated), the melting point lay within 201 to 203 °C. For `Cc1[nH]cnc1C(c1ccccc1)c1ccccc1`, the melting point was in the range of 198 to 204 °C. `O=C1NC(=O)C(Cc2ccc(OCCn3nc(-c4ccccc4)c4ccccc4c3=O)cc2)S1` (configuration not stated) came in with a melting point of 198 °C. For the compound `COc1ccc2c(-c3cc(F)ccc3F)noc2c1`, the melting point lay in the range of 121 to 122 °C. As to `CCCCCN1C(=O)C(NC(=O)c2ccc(Cl)c(Cl)c2)c2ccccc21` (configuration not stated), the melting point is 125 to 126 °C. In the case of `CCc1cc(Cl)cc2c1OC(C(F)(F)F)C(C(=O)O)=C2` (configuration not stated) it was 197 to 199 °C; in that of `CCn1ncc2cc3c(nc21)C(O)c1ccccc1CC3` (configuration not stated), 130 to 132 °C.

The compound `CCOC(=O)C(=O)N(c1ccccc1[N+](=O)[O-])C(C)(C)C` displayed a melting point of 73 to 74 °C. Compound `CC(=O)Nc1cc(Br)ccc1C(=O)O` had a melting point of 220 °C. Turning to `Cc1c(SCCCCSCc2ccncc2)ccnc1CNc1cnc2ccccc2c1`, the melting point lay within 110 to 113 °C. For `CC(=O)N1C(=O)C2(COc3cc4c(cc32)OCCO4)c2ccccc21` (configuration not stated), the melting point fell in the range of 236 to 238 °C.

Compound `COC(=O)CCCc1cc2cc(Cl)ccc2n1S(=O)(=O)c1ccc2c(c1)OCCN2C` yielded a melting point of 139 to 140 °C.

With `Cc1ccc(C(=O)Nc2cccc(C(F)(F)F)c2)cc1-c1ccc2scnc2c1`, the melting point was in the range of 200 to 202 °C. The compound `Nc1c2c(=O)c3ccccc3c(=O)c2c(N)c2c(=O)n(CCCO)c(=O)c12` yielded a melting point of 261 to 262 °C.

In the case of `COc1ccc(C(=O)c2ccccc2N)cc1`, the melting point lay in the range of 76 to 77 °C. For the compound `CCOC(=O)c1c(N[C@H]2CC[C@@H](c3ccccc3)CC2)ccnc1C`, the melting point was 191 °C. In the case of `O=C(Nc1cc(Cl)c([N+](=O)[O-])cc1O)C(=O)Nc1cc(Cl)c([N+](=O)[O-])cc1O`, the melting point was 302 °C. `COc1ccc(CCc2nc(C(F)(F)F)c[nH]2)cc1` displayed a melting point of 146 to 148 °C. Turning to `COc1ccccc1Oc1c(NS(=O)(=O)c2ccc(C(C)(C)C)cc2)nc(-c2ncccn2)nc1OCCOc1ccc(C(C)O)cc1` (configuration not stated), the melting point fell in the range of 191 to 194 °C.

Turning to `Cc1ccc(Cl)cc1N1CCCN(C(C)C)C1=S`, the melting point was 176 to 178 °C. The figure for `CCOC(=O)C1=C(C=O)NC(C(F)(F)F)=C(C(=O)OCC)C1c1cccc2nonc12` (configuration not stated) is 94 to 95 °C; for `COc1cccc(Cl)c1C(O)C(N)=O` (configuration not stated) it is 116 to 118 °C. In the case of `CCOC(=O)c1ccc(/C=C(\C)c2ccc(OC)c(C(C)(C)C)c2)cc1`, the melting point stood at 71.5 °C.

Compound `CS(=O)(=O)c1ccc(C2=C(c3cccc(F)c3)CN(C3CC3)C2=O)cc1` gave a melting point of 179 to 180 °C. The figure for `CN(C)C=C(C(=O)OC(C)(C)C)C(=O)c1ccccc1Cl` is 97 to 99 °C; for `COC(=O)NNc1ccc(C)c2c1OC(C)C2` (configuration not stated) it is 62 to 65 °C; for `CC(=O)OC1CCC2(C)C(=CCC3C2CCC2(C)C(C(C)CCC(OC(C)=O)C(C)(C)OC(C)=O)CCC32)C1` (configuration not stated) it is 121 to 122 °C. Take `O=C(Nc1ccc(F)cc1)NN(c1ccccc1)c1ccccc1`: the melting point was found to be 214 °C. `COC(=O)C(=O)c1ccc(OCCCc2ccc(F)cc2)cc1` showed a melting point of 42 to 43 °C.

`CCCCC(=O)Nc1nc2ccc(Cl)cc2nc1NC(=O)CCCC` came in with a melting point of 171 to 173 °C. For `COc1ccc2c(c1)CCC1C2CCC2(C)C(NCc3ccccc3)CCC12` (configuration not stated), the melting point is 102 to 104 °C. Regarding `CN(C)c1ccnc(CO)n1`, the melting point fell in the range of 83 to 84 °C. In the case of `Nc1cc(Cl)c(Sc2cccc3cnccc23)cc1N` it was 200 to 203 °C; in that of `COC(=O)CS(=O)(=O)Cc1cccc(-c2nc(=O)c3ccccc3s2)n1`, 205 to 207 °C.

The compound `CN1CCN(c2n[nH]c3cc(F)ccc23)CC1` had a melting point of 164 to 166 °C. As for `COc1ccnc(CCc2nc3cc(-c4ccc(S(=O)(=O)N5CCN(c6ccc(C)cc6)CC5)cc4)cnc3[nH]2)c1`, the melting point was 150 to 154 °C. Regarding `COC=C(C(=O)OC)c1ccccc1C=Cc1cscn1`, the melting point is 117 °C. Consider `O=CNC(Cl)C(Cl)(Cl)CCl` (configuration not stated), for which the melting point was in the range of 55 to 57 °C. Turning to `CC(C)Oc1ccc(CCCOc2nn(Cc3ccccc3)cc2CC(=O)O)c(Oc2ncc(Cl)cc2Cl)c1`, the melting point lay in the range of 111 to 113 °C.
